Here are results for 26 compounds from PubChem BioAssay AID651630 (Sanford-Burnham Center for Chemical Genomics, 2012).

The source made the active and inactive calls.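 How the source made its calls: active means lipid-stain IC50 at or below a set limit, with nuclear-stain toxicity IC50 at least five times higher; inactive means the rest.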

One assay relates to TAG. Briefly: triacylglycerol accumulation inhibitor potency, dose response, cell-based, panel, Nile Red and DAPI fluorescence, H9c2 (AID 651630).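 Further: cells exposed to compound overnight before fixation and staining.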 Conditions: H9c2 cells, Nile Red TAG fluorescence, oleic acid.
For another assay, the system named is DAPI. The description is as above. Conditions: H9c2 cells, DAPI nuclear fluorescence (cytotoxicity counter-readout), oleic acid.

One may read the IC50 as the midpoint of a concentration-inhibition curve. Consider `Cc1ccc(-c2nc(NC(=O)c3cc(C(C)(C)C)nn3C)sc2C)cc1Cl`, for which the half-inhibitory concentration (IC50) is 5.56 µM in the assay on TAG (mean of runs), 6.38 µM with TAG (run 1) and 4.74 µM in the assay on TAG (run 2). Further, the IC50 cytotoxicity (DAPI nuclear signal decrease) with DAPI (mean of runs) was 21.1 µM (inactive); in the assay on DAPI (run 1), 20.2 µM; in the assay on DAPI (run 2), 22 µM.
As to `Oc1cccc2cc(-c3ccncc3)cnc12`, the IC50 was > 25 µM (inactive) with TAG (mean of runs), above 25 µM with TAG (run 1) and above 25 µM with TAG (run 2). For the same compound, the IC50 cytotoxicity (DAPI nuclear signal decrease) was > 25 µM (inactive) with DAPI (mean of runs), above 25 µM in the assay with DAPI (run 1) and above 25 µM with DAPI (run 2).
`CCCCCc1cc(=O)oc2c(C(CCN3CCN(c4ccccc4)CC3)c3ccc(N(C)C)cc3)c(OC)cc(OC)c12` (stereo unspecified): the IC50 in the assay with TAG (mean of runs) is 12.2 µM; in the assay with TAG (run 1), 11.2 µM; with TAG (run 2), 13.2 µM. Moreover, the IC50 cytotoxicity (DAPI nuclear signal decrease) in the assay on DAPI (mean of runs) is > 25 µM (inactive); in the assay on DAPI (run 1) it was above 25 µM; in the assay on DAPI (run 2), above 25 µM.
As for `Cc1cccc(-c2ccc3[nH]c4c(c3c2)CCN2C[C@@H]([C@H](C)OC(=O)Nc3ccccc3C)[C@@H](N(C)C(=O)Nc3ccccc3C)C[C@@H]42)c1`, the IC50 in the assay with TAG (mean of runs) is 15.6 µM (inactive); in the assay with TAG (run 1), 15.5 µM; in the assay with TAG (run 2), 15.6 µM. For the same compound, the IC50 cytotoxicity (DAPI nuclear signal decrease) is > 25 µM (inactive) in the assay on DAPI (mean of runs), above 25 µM in the assay with DAPI (run 1) and above 25 µM in the assay on DAPI (run 2).
As to `Nc1ncnc2c1ncn2C1C=C(CO)C(O)C1O` (stereo unspecified), the figures for the IC50 with TAG (mean of runs), in the assay on TAG (run 1) and in the assay with TAG (run 2) were 12.5 µM, 11.4 µM and 13.7 µM, respectively. For the same compound, the IC50 cytotoxicity (DAPI nuclear signal decrease) in the assay with DAPI (mean of runs) was > 25 µM (inactive); with DAPI (run 1), above 25 µM; in the assay with DAPI (run 2) it was above 25 µM.
Turning to `O=C(OCc1ccc(Br)cc1)c1cc([N+](=O)[O-])ccc1N1CCOCC1`, the IC50 in the assay on TAG (mean of runs) is > 25 µM (inactive); in the assay with TAG (run 1), above 25 µM; with TAG (run 2) it was above 25 µM. In addition, the IC50 cytotoxicity (DAPI nuclear signal decrease) is > 25 µM (inactive) in the assay with DAPI (mean of runs), above 25 µM in the assay with DAPI (run 1) and above 25 µM in the assay with DAPI (run 2).
With `COc1cc(C2C(C#N)=C(N)Oc3cc4c(cc32)OCO4)cc(OC)c1OC` (stereo unspecified), the figures for the IC50 in the assay on TAG (run 1) and in the assay on TAG (run 2) were above 25 µM and 3.52 µM, respectively. The IC50 cytotoxicity (DAPI nuclear signal decrease) in the assay with DAPI (mean of runs) is > 25 µM (inactive); in the assay with DAPI (run 1) it was above 25 µM; in the assay on DAPI (run 2) it was above 25 µM.
`CCCc1cc(N2CCCC2)n2nc(C)c(-c3ccccc3)c2n1`: the results for the IC50 with TAG (mean of runs), with TAG (run 1) and in the assay on TAG (run 2) were > 25 µM (inactive), above 25 µM and above 25 µM, respectively. The results for the IC50 cytotoxicity (DAPI nuclear signal decrease) with DAPI (mean of runs), with DAPI (run 1) and with DAPI (run 2) were > 25 µM (inactive), above 25 µM and above 25 µM, respectively.
For `COc1ccc2nc(NC(=O)c3cccc(OCc4c(C)noc4C)c3)sc2c1`, the figures for the IC50 with TAG (mean of runs), in the assay on TAG (run 1) and with TAG (run 2) were 17.6 µM (inactive), 17.4 µM and 17.8 µM, respectively. For the same compound, the results for the IC50 cytotoxicity (DAPI nuclear signal decrease) with DAPI (mean of runs), in the assay with DAPI (run 1) and in the assay on DAPI (run 2) were > 25 µM (inactive), above 25 µM and above 25 µM, respectively.
On to `Nc1ccc(C#Cc2c(-c3ccsc3)oc3ccc(N4CCOCC4)cc23)cc1`, for which the figures for the IC50 in the assay with TAG (mean of runs), in the assay on TAG (run 1) and in the assay with TAG (run 2) were 11.4 µM, 10.8 µM and 11.9 µM, respectively. Also, the IC50 cytotoxicity (DAPI nuclear signal decrease) with DAPI (mean of runs) was > 25 µM (inactive); with DAPI (run 1), above 25 µM; in the assay on DAPI (run 2), above 25 µM.
`CN(C)CCCn1c(=O)n(CCc2ccccc2)c(=O)c2c3c(sc21)CCCCC3`: the values for the IC50 in the assay with TAG (mean of runs), with TAG (run 1) and in the assay on TAG (run 2) were > 25 µM (inactive), above 25 µM and above 25 µM, respectively. The IC50 cytotoxicity (DAPI nuclear signal decrease) in the assay on DAPI (run 1) is above 25 µM; in the assay on DAPI (run 2) it was 16.2 µM.
As to `CC(C)C[C@H]1CNC(=S)N1CC1CCCN1C[C@H](CC(C)C)N1C[C@H](CC(C)C)N(CCc2ccccc2)C1=S` (stereo partly specified), the results for the IC50 with TAG (mean of runs), with TAG (run 1) and with TAG (run 2) were 14.4 µM, 15.3 µM and 13.4 µM, respectively. The results for the IC50 cytotoxicity (DAPI nuclear signal decrease) in the assay with DAPI (mean of runs), with DAPI (run 1) and in the assay with DAPI (run 2) were > 25 µM (inactive), above 25 µM and above 25 µM, respectively.
Consider `CCCCCc1cc(=O)oc2c(C(CCN(CC)CC)c3ccc(OC)cc3)c(OC)cc(OC)c12` (stereo unspecified), for which the IC50 is > 25 µM (inactive) in the assay on TAG (mean of runs), above 25 µM in the assay on TAG (run 1) and above 25 µM in the assay on TAG (run 2). Besides, the IC50 cytotoxicity (DAPI nuclear signal decrease) in the assay on DAPI (mean of runs) was > 25 µM (inactive); in the assay on DAPI (run 1), above 25 µM; in the assay with DAPI (run 2), above 25 µM.
On to `Cc1cccc(Oc2nc(-c3ccccn3)nc3ccccc23)c1`, for which the values for the IC50 with TAG (mean of runs), in the assay on TAG (run 1) and in the assay on TAG (run 2) were > 25 µM (inactive), above 25 µM and above 25 µM, respectively. Further, the results for the IC50 cytotoxicity (DAPI nuclear signal decrease) with DAPI (mean of runs), in the assay with DAPI (run 1) and with DAPI (run 2) were > 25 µM (inactive), above 25 µM and above 25 µM, respectively.
In the case of `CCOc1ccccc1NC(=O)c1cccc(NC(=O)c2ccco2)c1`, the results for the IC50 in the assay with TAG (run 1) and with TAG (run 2) were above 25 µM and 9.58 µM, respectively. In addition, the IC50 cytotoxicity (DAPI nuclear signal decrease) was > 25 µM (inactive) in the assay with DAPI (mean of runs), above 25 µM in the assay with DAPI (run 1) and above 25 µM in the assay with DAPI (run 2).
For `COc1ccccc1-c1cc(NC=O)c2ncc(-c3cccc(C(=O)N(C)C)c3)n2c1`, the IC50 is 15.3 µM (inactive) in the assay with TAG (mean of runs), 17.5 µM in the assay with TAG (run 1) and 13.1 µM in the assay with TAG (run 2). The figures for the IC50 cytotoxicity (DAPI nuclear signal decrease) in the assay on DAPI (mean of runs), in the assay on DAPI (run 1) and in the assay on DAPI (run 2) were > 25 µM (inactive), above 25 µM and above 25 µM, respectively.
`Oc1ccc(C[C@H]2CNC(=S)N2CC2CCCN2C[C@H](Cc2ccc(O)cc2)N2C[C@H](Cc3ccc(O)cc3)N(CC3CCCCC3)C2=S)cc1` (stereo partly specified): the results for the IC50 with TAG (mean of runs), in the assay on TAG (run 1) and with TAG (run 2) were 9.34 µM, 8.74 µM and 9.95 µM, respectively. Further, the values for the IC50 cytotoxicity (DAPI nuclear signal decrease) with DAPI (mean of runs), with DAPI (run 1) and in the assay on DAPI (run 2) were > 25 µM (inactive), above 25 µM and above 25 µM, respectively.
As to `Cc1cc(N/N=C/c2cccc(Cl)c2)nc(-n2nc(C)cc2C)n1`, the IC50 with TAG (mean of runs) is > 25 µM (inactive); in the assay with TAG (run 1), above 25 µM; in the assay on TAG (run 2), above 25 µM. Moreover, the IC50 cytotoxicity (DAPI nuclear signal decrease) in the assay with DAPI (mean of runs) is > 25 µM (inactive); in the assay on DAPI (run 1), above 25 µM; with DAPI (run 2), above 25 µM.
As to `COC(=O)/C=C/c1ccccc1S(=O)(=O)N(Cc1ccccc1)Cc1ccco1`, the IC50 was > 25 µM (inactive) in the assay on TAG (mean of runs), above 25 µM in the assay on TAG (run 1) and above 25 µM with TAG (run 2). Further, the results for the IC50 cytotoxicity (DAPI nuclear signal decrease) in the assay on DAPI (mean of runs), in the assay on DAPI (run 1) and with DAPI (run 2) were > 25 µM (inactive), above 25 µM and above 25 µM, respectively.
`CN(C)CCCNC(=O)C[C@H]1C[C@H](C(=O)N2CCCCC2)[C@@]2(CCc3ccccc3)c3[nH]c4cc(-c5ccco5)ccc4c3CCN2C1=O`: the IC50 with TAG (run 1) was above 25 µM; in the assay with TAG (run 2), 14.5 µM. Moreover, the values for the IC50 cytotoxicity (DAPI nuclear signal decrease) in the assay with DAPI (mean of runs), with DAPI (run 1) and in the assay on DAPI (run 2) were > 25 µM (inactive), above 25 µM and above 25 µM, respectively.
For the compound `COc1ccccc1NC(=O)Nc1nc(C(N)Cc2ccc(C(F)(F)F)cc2)cs1` (stereo unspecified), the IC50 was 16.1 µM in the assay with TAG (run 1) and above 25 µM in the assay on TAG (run 2). Further, the figures for the IC50 cytotoxicity (DAPI nuclear signal decrease) in the assay with DAPI (mean of runs), with DAPI (run 1) and with DAPI (run 2) were > 25 µM (inactive), above 25 µM and above 25 µM, respectively.
For the compound `Cc1ccc(/C=N/NC(=O)c2c(C)nc3ccc(Br)cn23)cc1`, the IC50 with TAG (mean of runs) is > 25 µM (inactive); with TAG (run 1) it was above 25 µM; in the assay with TAG (run 2), above 25 µM. The results for the IC50 cytotoxicity (DAPI nuclear signal decrease) in the assay on DAPI (mean of runs), in the assay with DAPI (run 1) and with DAPI (run 2) were > 25 µM (inactive), above 25 µM and above 25 µM, respectively.
In the case of `CC(C)CCNCC(O)CON=C1c2ccccc2-c2ccccc21` (stereo unspecified), the IC50 in the assay on TAG (mean of runs) was > 25 µM (inactive); with TAG (run 1) it was above 25 µM; with TAG (run 2) it was above 25 µM. Moreover, the IC50 cytotoxicity (DAPI nuclear signal decrease) in the assay on DAPI (mean of runs) was > 25 µM (inactive); in the assay on DAPI (run 1) it was above 25 µM; with DAPI (run 2), above 25 µM.
In the case of `CC(C)Cc1nc2sc3c(NCc4ccco4)ncnc3c2c2c1COC(C)(C)C2`, the results for the IC50 with TAG (mean of runs), in the assay on TAG (run 1) and with TAG (run 2) were > 25 µM (inactive), above 25 µM and above 25 µM, respectively. The values for the IC50 cytotoxicity (DAPI nuclear signal decrease) in the assay with DAPI (mean of runs), with DAPI (run 1) and with DAPI (run 2) were > 25 µM (inactive), above 25 µM and above 25 µM, respectively.
As to `CCC(=NCCc1c(C)[nH]c2ccc(OC(F)(F)F)cc12)C1=C(O)CC(c2ccccc2)CC1=O` (stereo unspecified), the IC50 in the assay with TAG (mean of runs) was > 25 µM (inactive); with TAG (run 1), above 25 µM; in the assay with TAG (run 2), above 25 µM. Moreover, the IC50 cytotoxicity (DAPI nuclear signal decrease) in the assay with DAPI (mean of runs) was > 25 µM (inactive); in the assay with DAPI (run 1), above 25 µM; with DAPI (run 2) it was above 25 µM.
Regarding `O=C(Nc1ccc(-c2csc(Nc3ccc(Cl)cc3)n2)cc1)c1cc([N+](=O)[O-])cc(C(F)(F)F)c1`, the results for the IC50 in the assay with TAG (mean of runs), with TAG (run 1) and in the assay with TAG (run 2) were 8.54 µM, 6.55 µM and 10.5 µM, respectively. Besides, the IC50 cytotoxicity (DAPI nuclear signal decrease) is > 25 µM (inactive) with DAPI (mean of runs), above 25 µM in the assay with DAPI (run 1) and above 25 µM in the assay with DAPI (run 2).
